One data set concerns Canton S embryos. Nature of the data set: Scoring of cephalic furrow formation and germband elongation in embryos. Type of data set: in vivo, Drosophila melanogaster. Here is the method:
Effects of EPS and cycloheximide or other agents on embryo development were scored using contemporaneous DIC optics and fluorescent visualization. Canton S embryos were collected from a 3 hr laying and aged one additional hour at 25° C. Embryos were treated with 1:10 EPS in H2O for 30-60 seconds followed by washing and immersion in 1 mM rhodamine B dye in PBS for 5 minutes with rocking. Embryos were washed four times in PBS and immersed in PBS containing 10 μM cycloheximide on a Kiehart slide. Embryos were allowed to develop an additional 1.5 hours at ambient temperature (˜23° C.). […] Variable treatments included omission of EPS exposure or omission of cycloheximide or other toxic agent. Each condition was assayed in three independent preparations of embryos with >180 embryos scored for each treatment condition.
We next sought to determine the feasibility of using an early embryogenesis endpoint as an indicator of teratogenic effects. In separate experiments using flies carrying the GFP reporter for the Dorsal protein we determined that CHX had profound effects on the morphogenetic movements of the embryo in the first 3-5 hours of development (see FIG. 13 below). During these stages formation of the cephalic furrow and germband elongation serve as landmarks that are easily identifiable under differential interference contrast (DIC) microscopy (see FIG. 8). […]

In another data set the test system is Drosophila embryos. Nature of the data set: Midgut development by blue yolk auto-fluorescence at Stage 16. Type of data set: in vivo, Drosophila melanogaster. Conditions: EPS-treated 3 hr old embryos, 10 μM, 18° C., 20 hours. Here is the method: The embryo develops into a larva in 22-24 hours at 25° C. (refer to FIG. 9A). […] We investigated a variety of morphological events leading up to stage 17 for potentially easily identifiable endpoints. Through monitoring development under fluorescence time-lapse imaging we observed the highly dynamic pattern of blue fluorescence emitted from the auto-fluorescence of yolk proteins in the embryo. At preblastodem stages a relatively uniformly dispersed blue fluorescence is seen across the embryo (FIG. 11A). Between 3-6 hours of development this pattern changes drastically as the yolk proteins are pushed aside during germband elongation (refer to FIG. 9A). […] Blue fluorescence is seen to consolidate in the lumen of the gut initially as one large mass in the newly fused midgut (FIG. 11A, 12 hrs). […] The compartmentalized strong blue fluorescence in the midgut makes normally developed Stage 16/17 embryos easily discernable under fluorescence (FIG. 11A, 14 hrs).
We next tested the utility of this endpoint to examine small molecule toxicity by exposing permeabilized embryos to cycloheximide (CHX), a potent protein synthesis inhibitor and teratogen. EPS-treated 3 hr old embryos were incubated in the presence (FIG. 11 D, E) or absence (FIG. 11A,B,C) of 10 μM CHX at 18° C. for 20 hours (equivalent to 10 hours at 25° C.) and examined under blue fluorescence. […]

For a further data set, the system named is Dorsal-GFP embryos. Nature of the data set: Dorsal-GFP reporter in preblastoderm embryos. It counts as in vivo, Drosophila melanogaster. The settings on record: EPS treated preblastoderm embryos. An excerpt:
We turned to the Dorsal-GFP transgenic fusion construct reporter to further examine the effects of the teratogen CHX. The Dorsal protein is the Drosophila NF-κB homolog which is central to signaling that establishes the dorsal-ventral axis in the embryo. Dorsal protein localizes to ventral cell nuclei where it acts to define the D/V axis.
Using this same Dorsal-GFP construct we see dynamic distribution of Dorsal-GFP in and out of the ventral nuclei of an EPS treated pre-blastoderm embryos (FIG. 13A, B). […] In many cases these early embryos are seen to stall in development. […] Embryos affected at slightly later stages show irregular nuclear Dorsal accumulation (FIG. 13D) as well as varied sizes in the nuclei present (FIG. 13E). It is interesting to note that these deformities occur more frequently in the anterior portion of the embryo, consistent with the gradient of dye dispersal seen in EPS treated embryos.

The next data set relates to engrailed-GFP embryos. Conditions: EPS-permeabilized embryos. Here is the method: Incubations of permeabilized embryos were carried out in two types of chambers. Longer-term incubations (6-48 hours) were done in a modified nitex basket (see FIG. 1). The basket-reservoir apparatus was covered with a tight fitting cap to limit evaporation and was incubated at 18° C. for continued development of the embryo. Short term incubations <3 hours were done in a slide chamber (see FIG. 2A). […] Incubations for early embryonic endpoints were done at room temperature and for later developmental endpoint (e.g. gut development and engrailed patterning) at 18° C.
Drug treatments were done by additions to the PBS solution reservoir during incubation in either the slide or basket chambers. Drugs used were: cycloheximide (Fluka 01810, MW=281.35, 50 mM stock in H2O), colchicine (Biomol Labs T118, MW=[…] in H2O), methylmercury chloride (Aldrich 442534, MW=251, 50 mM stock in DMSO), cytochalasin D (Sigma C8273, MW=507.6, 5 mM stock in DMSO) and cyclophosphamide (LKT C9609, MW=279.1, 100 mM stock in H2O).
The engrailed gene encodes a homeodomain transcription factor that is highly conserved in all metazoans. Engrailed is a segment polarity gene whose expression marks the […] boundary of each segment in the embryo. Engrailed also function in neural development to define developing brain regions and regulate growth of axons.

The nature of the next data set: Miscibility with water. Type of data set: physicochemical. Conditions: without surfactant. Here is the method: The presence of at least one surfactant is required to allow for the formation of a stable emulsion for sufficient time to allow for permeabilization of the embryos (i.e., at least about 10 minutes).

The results in this text go back to patent US20120009590A1, “DEVICE AND NON-TOXIC COMPOSITIONS AND METHODS FOR PERMEABILIZATION OF DROSOPHILA EMBRYOS” (The University of Vermont and State Agriculture College, priority 2009, published 2012).

SMILES strings stand for the structures.

In the case of `C[C@@H]1C[C@@H]([C@H](O)CC2CC(=O)NC(=O)C2)C(=O)[C@@H](C)C1` [CHX, cycloheximide], in the data set on Canton S embryos (2.5 hr old permeabilized embryos, 10 μM, 1.5 hours), the cephalic furrow formation result was “disruption of cephalic furrow formation”. Besides, the “EPS treated embryos with abnormal formation of the cephalic furrow” value with Canton S embryos (CHX 10 μM, EPS treated embryos) is “more than 80%”. Besides, the “gut development (blue fluorescence pattern)” value in the data set on Drosophila embryos is recorded as “induced gut malformation”. In the data set with Dorsal-GFP embryos, the “pattern of nuclear divisions and Dorsal-GFP distribution” value was “gross deformities in the pattern of nuclear divisions and Dorsal distribution”.

Regarding `C=C1[C@@H](C)[C@H]2[C@H](Cc3ccccc3)NC(=O)[C@]23[C@H](OC(C)=O)/C=C/[C@@](C)(O)C(=O)[C@@H](C)C/C=C/[C@H]3[C@@H]1O` [Cytochalasin D, cytochalasin D], the “engrailed-GFP expression pattern and embryo development” value in the data set on engrailed-GFP embryos was “stalling of embryo development at Stage 11 with gaps in the Engrailed band of cells in several segments”. For the compound `C=C(C)C1CC=C(C)CC1` [Limonene, D-Limonene], the miscibility with water entry in “Miscibility with water” is on record as “not miscible with water”.

In the case of `[CH3][Hg][Cl]` [MeHg, methylmercury chloride], the “engrailed-GFP expression pattern and embryo development” value with engrailed-GFP embryos is “stalls the embryo at Stage 11 and disrupts the regularity of engrailed banding pattern”. As for `O=P1(N(CCCl)CCCl)NCCCO1` (centres unmarked) [cyclophosphamide], in the data set on engrailed-GFP embryos, the “engrailed-GFP expression pattern and embryo development” value is “overall shortening of the embryo and generates breaks in the bands of engrailed expressing cells”.
